Experimental data from PubChem BioAssay (NCI).
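Tested at 5 concentrations; 48 h exposure; 96-well plates; endpoints linearly interpolated, else capped at highest concentration. Abbreviation: GI50, concentration required for 50% inhibition of growth. TGI denotes the concentration required for complete inhibition of growth.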

Legend:
Assay in all cases: inhibition of tumour cell growth, NCI panel, 48 h
[1] = test system: HCT-116 colon
[2] = test system: HL-60(TB) leukemia
[3] = test system: NCI-H226 lung
[4] = test system: SN12C renal
[5] = test system: SR leukemia
[6] = test system: OVCAR-8 ovarian
[7] = test system: HT29 colon
[8] = test system: NCI-H23 lung
[9] = test system: HS 578T breast
[10] = test system: A498 renal

With `C#Cc1cccc(NC(=O)C2CCCCN2C(=O)CCl)c1` (stereo unspecified) the GI50 [1] was 13.7 µM, the TGI [1] was 43.2 µM and the GI50 [2] was 16.8 µM. The TGI [2] was 51.7 µM, the GI50 [3] was 52.1 µM and the TGI [3] was greater than 82.5 µM. For the same compound, the GI50 [4] was 12.2 µM, the TGI [4] was 28.4 µM and the GI50 [5] was 3.6 µM. The TGI [5] was 66.8 µM, the GI50 [6] was 20.3 µM and the TGI [6] was greater than 82.5 µM. The GI50 [7] was 18.7 µM, the TGI [7] was 41.9 µM and the GI50 [8] was 10.7 µM. It also gave a TGI [8] of 28.2 µM, a GI50 [9] of 18.4 µM and a TGI [9] of 76.4 µM.

Compound `Cc1cc(C2CC(O)C(CO)O2)c(Br)cc1Br` (stereo unspecified) has a GI50 [10] of 36.7 µM, a TGI [10] greater than 100 µM and a GI50 [1] greater than 100 µM. It also gave a TGI [1] greater than 100 µM, a GI50 [2] of 73.4 µM and a TGI [2] greater than 100 µM. It also gave a GI50 [3] greater than 100 µM, a TGI [3] greater than 100 µM and a GI50 [4] greater than 100 µM. The TGI [4] was greater than 100 µM, the GI50 [6] was greater than 100 µM and the TGI [6] was greater than 100 µM. The GI50 [7] was 99.1 µM, the TGI [7] was greater than 100 µM and the GI50 [8] was greater than 100 µM. The TGI [8] was greater than 100 µM, the GI50 [9] was 49.9 µM and the TGI [9] was greater than 100 µM.

In the case of `CCCCCCCN(CCCCCCC)C(=N)c1ccc(OC)c2ccccc12`, the GI50 [10] is reported as 0.419 µM, the TGI [10] is reported as 1.8 µM and the GI50 [4] is reported as 1.24 µM. It also gave a TGI [4] of 2.76 µM, a GI50 [6] of 1.41 µM and a TGI [6] of 3.04 µM. The GI50 [8] was 1.1 µM, the TGI [8] was 2.53 µM and the GI50 [9] was 1.56 µM. It also gave a TGI [9] of 3.53 µM.

For `Cc1ccccc1C1SCc2nc3ccccc3n21` (stereo unspecified), the TGI [1] was greater than 100 µM, the TGI [2] was greater than 100 µM and the TGI [3] was greater than 100 µM. It also gave a TGI [4] greater than 100 µM, a TGI [6] greater than 100 µM and a TGI [8] greater than 100 µM.

For `Clc1cc2ns[s+]c2cc1Cl`, the TGI [10] was greater than 100 µM, the TGI [1] was greater than 100 µM and the TGI [2] was greater than 87.2 µM. It also gave a TGI [3] greater than 100 µM, a TGI [4] greater than 100 µM and a TGI [5] greater than 100 µM. It also gave a TGI [6] greater than 100 µM, a TGI [7] greater than 100 µM and a TGI [8] greater than 100 µM.

Compound `Nc1nc(N)c2c(n1)NC(c1ccc(Cl)cc1)C1CCc3ccccc3C1=N2` (stereo unspecified) has a GI50 [10] of 5.34 µM, a TGI [10] of 19 µM and a GI50 [1] of 3.72 µM. It also gave a TGI [1] of 14.9 µM, a GI50 [3] of 8.58 µM and a TGI [3] of 27.8 µM. It also gave a GI50 [4] of 7.68 µM, a TGI [4] of 21.7 µM and a GI50 [5] of 1.73 µM. For the same compound, the TGI [5] was 5.01 µM, the GI50 [6] was 10.8 µM and the TGI [6] was 43.1 µM. It also gave a GI50 [7] of 4.31 µM, a TGI [7] of 18 µM and a GI50 [8] of 4.88 µM. The TGI [8] was 18 µM, the GI50 [9] was 15 µM and the TGI [9] was 50.3 µM.

`C=C1[C@H](O)C[C@@H](C(C)C(O)CC=C(C)C)[C@@H](O)[C@@H]2C(C)=CC[C@@H]12` (stereo partly specified) was tested, and the GI50 [1] was greater than 100 µM, the TGI [1] was greater than 100 µM and the GI50 [2] was greater than 100 µM. For the same compound, the TGI [2] was greater than 100 µM, the GI50 [3] was greater than 100 µM and the TGI [3] was greater than 100 µM. It also gave a GI50 [4] greater than 100 µM, a TGI [4] greater than 100 µM and a GI50 [5] greater than 100 µM. For the same compound, the TGI [5] was greater than 100 µM, the GI50 [6] was greater than 100 µM and the TGI [6] was greater than 100 µM. It also gave a GI50 [7] greater than 100 µM, a TGI [7] greater than 100 µM and a GI50 [8] greater than 100 µM. For the same compound, the TGI [8] was greater than 100 µM, the GI50 [9] was greater than 100 µM and the TGI [9] was greater than 100 µM.

In the case of `NC1=NN(c2ccccc2)C(=O)C1/C(=N\NC(=O)c1cc2ccccc2cc1O)C(=O)Nc1ccc(Cl)c(Cl)c1` (stereo unspecified), the TGI [10] is reported as greater than 100 µM, the TGI [1] is reported as greater than 100 µM and the TGI [2] is reported as 39.8 µM. The TGI [3] was greater than 100 µM, the TGI [4] was greater than 100 µM and the TGI [5] was 5.71 µM. For the same compound, the TGI [6] was greater than 100 µM, the TGI [7] was greater than 100 µM and the TGI [8] was 63.5 µM.

Work on `COc1ccc(NC(=O)CC2SC(=Nc3ccc(Cl)cc3C)NC2=O)c([N+](=O)[O-])c1` (stereo unspecified) yielded a TGI [10] greater than 100 µM, a TGI [1] greater than 100 µM and a TGI [2] greater than 100 µM. It also gave a TGI [3] greater than 100 µM, a TGI [4] greater than 100 µM and a TGI [5] greater than 100 µM. It also gave a TGI [6] greater than 100 µM, a TGI [7] greater than 100 µM and a TGI [8] greater than 100 µM.

Compound `CC(C)(C)c1cc([Si](C)(C)C)c(C#N)c([Si](C)(C)C)c1` has a TGI [10] greater than 100 µM, a TGI [1] greater than 100 µM and a TGI [2] of 44.2 µM. It also gave a TGI [3] greater than 100 µM, a TGI [4] greater than 100 µM and a TGI [5] of 85.5 µM. It also gave a TGI [6] greater than 100 µM, a TGI [7] greater than 100 µM and a TGI [8] greater than 100 µM.

Compound `COc1cc(OC)c(OC)cc1/C=C/c1ccc2ccccc2n1` has a TGI [1] greater than 10 µM, a TGI [2] greater than 10 µM and a TGI [4] greater than 10 µM. For the same compound, the TGI [5] was greater than 10 µM, the TGI [6] was greater than 10 µM and the TGI [7] was greater than 10 µM. It also gave a TGI [8] greater than 10 µM and a TGI [9] greater than 10 µM.

`OCC1OC(N2CCN(C3OC(CO)C(O)C(O)C3O)CC2)C(O)C(O)C1O` (stereo unspecified) was tested, and the TGI [10] was greater than 100 µM, the TGI [1] was greater than 100 µM and the TGI [3] was greater than 100 µM. It also gave a TGI [4] greater than 100 µM, a TGI [5] greater than 100 µM and a TGI [6] greater than 100 µM. It also gave a TGI [7] greater than 100 µM, a TGI [8] greater than 100 µM and a TGI [9] greater than 100 µM.

Compound `COc1ccc(C2[C@@H](Cl)C(=O)N2c2ccc(OC)cc2)cc1` (stereo partly specified) has a TGI [10] greater than 100 µM, a TGI [1] greater than 100 µM and a TGI [2] greater than 100 µM. It also gave a TGI [3] greater than 100 µM, a TGI [4] greater than 100 µM and a TGI [5] greater than 100 µM. The TGI [6] was greater than 100 µM, the TGI [7] was greater than 100 µM and the TGI [8] was greater than 100 µM.

`CC1O[C@@H]2CCCCC(=O)[C@]2(C)[C@H]1C` (stereo partly specified) was tested, and the TGI [1] was greater than 100 µM, the TGI [2] was greater than 100 µM and the TGI [3] was greater than 100 µM. For the same compound, the TGI [4] was greater than 100 µM, the TGI [6] was greater than 100 µM and the TGI [7] was greater than 100 µM.

`COc1ccc(-c2oc(C=Nc3ccccc3)c([N+](=O)[O-])c2-c2ccc(OC)c(OC)c2)cc1OC` was tested, and the TGI [1] was greater than 100 µM, the TGI [2] was greater than 100 µM and the TGI [3] was greater than 100 µM. The TGI [4] was greater than 100 µM, the TGI [5] was greater than 100 µM and the TGI [6] was greater than 100 µM. For the same compound, the TGI [7] was greater than 100 µM and the TGI [8] was greater than 100 µM.

`O=c1[nH]c(C2CCCCC2)nc2ccc(Cl)cc12` was tested, and the TGI [1] was greater than 100 µM, the TGI [3] was greater than 100 µM and the TGI [4] was greater than 100 µM. It also gave a TGI [5] greater than 100 µM, a TGI [6] greater than 100 µM and a TGI [7] greater than 100 µM. It also gave a TGI [8] greater than 100 µM.

With `O=C1/C(=C/c2ccc(C(=O)O)cc2)CNC/C1=C\c1ccc(C(=O)O)cc1` the TGI [10] was greater than 100 µM, the TGI [1] was greater than 100 µM and the TGI [2] was greater than 100 µM. It also gave a TGI [3] greater than 100 µM, a TGI [4] greater than 100 µM and a TGI [5] greater than 100 µM. The TGI [6] was greater than 100 µM, the TGI [7] was greater than 100 µM and the TGI [8] was greater than 100 µM.

In the case of `c1ccc2cc(Cn3c(-c4cccc5ccccc45)[n+](Cc4ccc5ccccc5c4)c4c5ccccc5c5ccccc5c43)ccc2c1`, the GI50 [10] is reported as 0.193 µM, the TGI [10] is reported as 0.779 µM and the GI50 [1] is reported as 0.176 µM. The TGI [1] was 1.5 µM, the GI50 [2] was 0.142 µM and the TGI [2] was 0.585 µM. For the same compound, the GI50 [6] was 0.332 µM, the TGI [6] was 1.92 µM and the GI50 [8] was 0.248 µM. The TGI [8] was 1.15 µM, the GI50 [9] was 0.383 µM and the TGI [9] was 2.45 µM.

For `CN1C(=O)CC(CC(=O)C2CCCCC2=O)CC1=O` (stereo unspecified), the TGI [10] was greater than 100 µM, the TGI [1] was greater than 100 µM and the TGI [2] was greater than 100 µM. It also gave a TGI [3] greater than 100 µM, a TGI [4] greater than 100 µM and a TGI [5] greater than 100 µM. The TGI [6] was greater than 100 µM, the TGI [7] was greater than 100 µM and the TGI [8] was greater than 100 µM.
